# Results: PMC3669292, “Neuroprotective Efficacy of a New Brain-Penetrating C-Abl Inhibitor in a Murine Parkinson’s Disease Model” (PLoS ONE, 2013)
# Legend:
# [1] = system: BBMEC monolayers; assay: Directional permeability of drug analogues across primary BBMEC monolayers (in vitro BBB model); assay type: in vitro ADME, bovine; conditions: for Apparent Permeability Ratio A → B/B→ A: mean ± SD, n = 3
# Protocol: (§1) The BBMEC were isolated by a modified method previously described. Briefly, the meninges were removed from the gray matter of fresh cow cerebral cortices and mechanically homogenized through a 100 μm mesh screen. Dispase II enzyme (5 mg/ml) reconstituted in MEM isolation media (MEM ([…]), HEPES (50 mM), polymyxin B (50 ug/ml), gentamicin (50 ug/ml) and amphotercin B (2.5 ug/ml) at pH 7.4) was added to the freshly homogenized cerebral cortical tissue (10 mg/g brain tissue) and MEM isolation media at […] was added (equal w/w of brain tissue). The mixture was placed in an incubated shaker for one hour (37°C, 150 rpm). Following this incubation, the supernatant was removed by centrifugation (10 min at 1570 rcf). […] The crude capillary pellet was collected and re-suspended in a collagenase/dispase (5 mg/ml) solution at a final concentration of 0.1% (v/w) and placed in an incubated shaker (37°C, 150 rpm) for one hour. […] The digested capillaries were centrifuged (10 min, 1700 rcf) to remove the enzymatic treatment and re-suspended in isolation media and pipetted into the percoll gradient tubes. The BBMEC cells were then separated by centrifugation (10 min at 1700 rcf). […] The BBMEC were plated (approximately 50,000 cells/cm^2 density) on collagen-coated, fibronectin-treated culture plates, and incubated in a humidified incubator (37°C with 5% (v/v) CO2). The cells were used after reaching confluence, typically 8-12 days. The concentrations of both drugs, Imatinib and INNO-406, were analyzed by a rapid HPLC separation and UV-VIS detection. […] The effluents were monitored at 223 nm and quantified using the area under the peak from standard solutions dissolved in assay II buffer (0.4 to 25 μg/ml). Assay II buffer consisted of sodium chloride (122 mM), potassium chloride (3 mM), calcium chloride (1.4 mM), magnesium sulfate (1.2 mM), sodium bicarbonate (25 mM), HEPES (10 mM), d-glucose (10 mM) and potassium phosphate (0.4 mM) at Ph of 7.4. The directional comparison of drug analogues transported in primary BBMEC monolayers was determined. These methods have been previously described, [21]. Briefly, the freshly isolated BBMEC were plated in triplicates (50,000 cells/cm^2 seeding density) on collagen-coated, fibronectin-treated polycarbonate membrane inserts, and cultured until confluence (12 mm; 0.4 μm pore size, Costar TranswellTM 12-well, Cambridge, MA). Complete culture media from confluent BBMEC monolayers was replaced 24-hours prior to the start of the experiment. The confluent monolayers were mounted in side-by-side diffusion chambers ([…]) either the apical or the basolateral sides were supplied with fresh assay II buffer with drug (donor chamber, 10 μM). Samples (100 μl) were removed from the […] compartment at various time points (0-90 min) and replaced with fresh buffer. The concentration of drug in the samples was determined spectrophotometrically by HPLC methodology reported above ([…]). The directional transport was expressed as the percent of the respective drug across the BBMEC monolayers over time (Mean ± SD, n = 3).
# [2] = as above; assay type: in vitro ADME, bovine; conditions: bovine, pH 7.4, donor 10 µM, 0–90 min, mean ± SD, n = 3; for Papp A→B at 10 µM: apical-to-basolateral, read-out: Apparent Permeability Coefficient A → B; for Papp B→A at 10 µM: basolateral-to-apical, read-out: Apparent Permeability Coefficient B → A
# Protocol: as §1
# [3] = system: Bcr-Abl; conditions: preclinical studies; cited from earlier work
# [4] = system: c-Abl activation, parkin tyrosine phosphorylation, AIMP2 accumulation; assay: Immunoprecipitation/immunoblot of striatal lysates of MPTP-treated mice; assay type: in vivo, C57BL/6 mice; conditions: 10 mg/kg i.p. daily one week before and one week after MPTP; vs MPTP alone
# [5] = system: SH-SY5Y cells; assay: Lactate dehydrogenase cytotoxicity assay, MPP+-treated cells; assay type: cell-based; conditions: 6 h pretreatment with 0.5 or 1.0 µM; MPP+ 500 µM; 24 h after exposure
# Protocol: The release of lactate dehydrogenase for cytotoxicity was measured by LDH assay kit (Roche#11644793001). A 100 µL of the supernatant from treated cells was transferred to new 96-well plates. The plates were incubated for 30 min at room temperature on orbital shaker. A colorimetric absorbance was recorded at 490 nm with a reference wavelength of 650 nm using a micro plate reader for colorimetric detection (BioTek, USA). Each experiment was done in triplicate. Cytotoxicity is expressed in terms of percent relative to the basal lactate dehydrogenase release by untreated control cells where controls cells serve as 100 percent.
# Figure 4 INNO-406 prevents dopaminergic depletion and c-Abl mediated parkin phosphorylation in mice striatum. (A) INNO-406 prevents MPTP-induced depletion of striatal dopamine and its metabolites DOPAC and HVA in adult male C57BL/J6 mice. Animals received INNO-406 (10 mg/kg, i.p.) as a single daily injection for 7 days before MPTP injection. […] The optical density quantification data as normalized amounts is presented. * Considered statistically significant from control (p<0.05). ** Considered statistically significant from MPTP (p<0.05). (C) Cytotoxicity plotted as a percentage of control as measured by LDH in SH-SY5Y cells treated with MPP^+ (500 µM). […] Differences among means were analyzed using one-way analysis of variance (ANOVA). […]
# [6] = cited from earlier work
# [7] = system: MPTP-induced dopaminergic damage in C57BL/6 mice; assay: MPTP mouse model of PD: TH+ neuron stereology, striatal TH optical density, striatal dopamine; assay type: in vivo
# [8] = Brain levels of INNO-406 in C57 mice after single i.p. injection; assay type: in vivo; conditions: for Brain level of INNO-406: C57 mice
# Protocol: For pharmacokinetic studies, INNO-406 was injected at 2.5 mg/kg/i.p. or 10 mg/kg/i.p. in C57 mice and brains were harvested 1 h, 4 h, and 24 h after a single injection. In another study, INNO-406 was injected at 2.5 mg/kg/i.p. or 10 mg/kg/i.p. in C57 mice in the presence or absence of MPTP (4×20 mg/kg/i.p. at 2 h interval) after last injection of MPTP and brains were harvested 1 h, 4 h, and 24 h after a single injection of INNO-406. Finally, brain levels of MPP+ in C57 mice were measured 1 h, 4 h, and 24 h after single injection of MPTP (60 mg/kg/i.p.) in the presence or absence of a single injection of INNO-406 (2.5 mg/kg/i.p. or 10 mg/kg/i.p.).
# The concentrations of both drugs, Imatinib and INNO-406, were analyzed by a rapid HPLC separation and UV-VIS detection. Briefly, the isocratic HPLC analysis for both Imatinib and INNO-406 were achieved on a C18 Zorbax column (150×4.6 mm, 5 um) (Phenomenex, Torrance, CA) with a simple mobile phase consisting of methanol and deionized water (50∶50% v/v/) at a flow rate of 1.0 ml/min. The effluents were monitored at 223 nm and quantified using the area under the peak from standard solutions dissolved in assay II buffer (0.4 to 25 µg/ml). Assay II buffer consisted of sodium chloride (122 mM), potassium chloride (3 mM), calcium chloride (1.4 mM), magnesium sulfate (1.2 mM), sodium bicarbonate (25 mM), HEPES (10 mM), d-glucose (10 mM) and potassium phosphate (0.4 mM) at Ph of 7.4.
# [9] = INNO-406 10 mg/kg i.p. without MPTP
compound,measurement,setting,value
Cc1ccc(NC(=O)c2ccc(CN3CC[C@H](N(C)C)C3)c(C(F)(F)F)c2)cc1Nc1nccc(-c2cncnc2)n1 [INNO-406],Enhancement of apical-to-basolateral transport across BBMEC monolayers compared to Imatinib,"[1]; apical-to-basolateral, vs Imatinib",approximately 7.5 fold
same,Apparent Permeability Ratio A → B/B→ A,[1],1.00±0.119
same,Papp A→B at 10 µM,[2],98 ± 6.74 ×10⁻⁶ cm/s
same,Papp B→A at 10 µM,[2],94.5 ± 10.1 ×10⁻⁶ cm/s
same,Potency relative to Imatinib in vivo,[3],≥ 10 fold
same,Striatal level of AIMP2,[4],significant decreases
same,Striatal level of phospho-c-Abl,[4],significant decreases
same,Striatal level of phospho-parkin,[4],significant decreases
same,MPP+-induced cytotoxicity (LDH release),[5],prevented
same,Entry into brain,[6],significantly enter brain
same,Loss of TH staining intensity in striatum in MPTP mice that also received INNO-406,"[7]; 10 mg/kg i.p. daily one week before and after MPTP, relative to controls, MPTP alone 70% loss",35%
same,"Prevention (decrease) of loss of dopamine (and DOPAC, HVA) in the striatum",[7]; 10 mg/kg i.p. daily one week before and one week after MPTP 4×20 mg/kg i.p. every 2 h,45%
same,MPTP-induced loss of TH+ neurons in the SNpc in mice also treated with INNO-406,"[7]; 10 mg/kg i.p. daily one week before and one week after MPTP 4×20 mg/kg, vs saline, MPTP alone 60–65% loss",15–20%
same,"Organization and intensity of TH-immunoreactive neurons in SNpc, INNO-406 alone vs saline",[7]; [9],essentially similar
same,"TH immunoreactivity within the striatum, INNO-406 alone vs control",[7]; [9],similar
same,Brain level of INNO-406,[8]; 1 h after single injection of 10 mg/kg i.p.,50 ng
same,Brain level of INNO-406,[8]; 4 h after single injection of 10 mg/kg i.p.,80 ng
same,Brain level of INNO-406,[8]; 24 h after single injection of 10 mg/kg i.p.,65 ng
same,Effect of multiple MPTP injections on brain levels of INNO-406,"[8]; MPTP 4×20 mg/kg i.p. at 2 h interval, INNO-406 2.5 or 10 mg/kg i.p., 1, 4, 24 h",not altered
Cc1ccc(NC(=O)c2ccc(CN3CCN(C)CC3)cc2)cc1Nc1nccc(-c2cccnc2)n1 [Imatinib],Apparent Permeability Ratio A → B/B→ A,[1],0.20±0.001
same,Papp A→B at 10 µM,[2],12.96 ± 0.07 ×10⁻⁶ cm/s
same,Papp B→A at 10 µM,[2],63.86 ± 0.23 ×10⁻⁶ cm/s
same,Brain bioavailability,[6],limited brain bioavailability
same,Capacity to cross blood-brain barrier,[6],minimal capacity to cross blood-brain barrier
